Entries after “also recorded” stand apart in the source; their conditions may differ. Blank lines part the entries; values can stand above or below the molecule they belong to.
Test: Release of rapamycin from spray-coated microporous stents (UV spectroscopy at 280 nm)
Type: physicochemical
Settings: for effect of second drug on rapamycin release from the stent platform: 0.5% and 1.0% 17β estradiol valerate added to 1% rapamycin solution in ethanol
Description: Microporous stents are spray-coated by means of a unique stent-coating machine (Wessely et al, supra). Attachment of a drug-reservoir is required to supply one or multiple drugs of choice. Besides sirolimus (rapamycin) we included a second drug at different concentrations to examine whether release kinetics of the primary compound (e.g. sirolimus) could be altered. Released rapamycin from the stent platform were measured at distinctive time points as previously described (Wessely, supra) by means of UV spectroscopy at a wave length of 280 nm.
The experiment was carried out as Example 1 with the exception that 17β estradiol was used as second drug.
The experiment was carried out as Example 1 with the exception that rosiglitazone was used as second drug.
The experiment was carried out as Example 1 with the exception that probucol was used as second drug.

effect of second drug on rapamycin release from the stent platform (0.1%): substantially modulate rapamycin release | effect of second drug on rapamycin release from the stent platform (0.1%, listed as estradiolvalerat): retardation
Structure (SMILES): CCCCC(=O)O[C@H]1CC[C@H]2[C@@H]3CCc4cc(O)ccc4[C@H]3CC[C@]12C [17β estradiol valerate]

effect of second drug on stent-based rapamycin release (multiplex coating with rapamycin (1%) and carvedilol (0.5%) in ethanol vs single coated rapamycin (1%)): clear retardation
Structure (SMILES): COc1ccccc1OCCNCC(O)COc1cccc2[nH]c3ccccc3c12 (stereo not shown) [carvedilol]

Structure (SMILES): CC(C)(Sc1cc(C(C)(C)C)c(O)c(C(C)(C)C)c1)Sc1cc(C(C)(C)C)c(O)c(C(C)(C)C)c1 [probucol, 4,4′-(isopropylidenedithio) bis(2,6-di-tert-butyl-phenol)]
effect of second drug on release of rapamycin from the stent (0.1%, 0.5% and 1.0% probucol added to 4% rapamycin solution in ethanol, polymer-free): protracts the release of rapamycin; also recorded: modifiable

Source: patent US20090177280A1, “Implant With Multiple Coating” (priority 2005, published 2009)
